These results are taken from patent US20260015350A1, “AZAQUINAZOLINE PAN-KRAS INHIBITORS” (Mirati Therapeutics, Inc., priority 2022, published 2026).

One assay has as its target T1, KRas^G12R (Homo sapiens, UniProt P01116, G12R).
T1 construct: Biotinylated KRas (corresponding to amino acids 1-169, produced at Accelegan Inc.); biotin (biotinylated); purchased Accelegan Inc
The experiment in a line: KRas binding assay (TR-FRET tracer displacement), KRas G12R. On the technique in general: TR-FRET usually uses a lanthanide donor and a delayed reading to cut background.

The target in another assay is T2, KRas^G12D (Homo sapiens, UniProt P01116, G12D).
T2 construct: Biotinylated KRas (corresponding to amino acids 1-169, produced at Accelegan Inc.); biotin (biotinylated); purchased Accelegan Inc
The experiment in a line: KRas binding assay (TR-FRET tracer displacement), KRas G12D.

Assay [1] has as its system KRas-mediated phosphorylation of ERK in H727 cells. The experiment in a line: Inhibition of KRas-mediated phosphorylation of ERK (Cisbio HTRF pERK), H727 cells. Type of assay: cell-based. The note with it: Homo sapiens, NCI-H727, H727 cells; HTRF pERK. The procedure: (§1) Inhibition of KRas Phosphorylation of ERK (HTRF) by Exemplary Compounds of Formula (I) Cisbio HTRF Advanced PERK Assay Catalog #64[…] […] Add 10 mL of media to stop trypsinizing. Pipette the cells into a conical bottom 50 mL centrifuge tube and centrifuge 5 min×1000 rpm. […] Re-suspend the cell pellet in media, take a cell count, and then adjust the cell density using fresh media. […] Seed 6,000 cells into cell culture plate with 50 μL media. […] Use Tecan to complete the compound addition. Compounds start from 10 uM top, 3-fold dilution, and 10 doses. The final DMSO concentration is 0.8%. Dispensed 0.2 uM Trametinib as Min control. […] Incubate cell plate for 3 hrs in the incubator. […] Dilute 1 volume of 4× lysis buffer with 3 volumes of deionized water. […] Keep lysis buffer on the ice. […] At the end of the compound treatment, flick-off the media. […] Add 35 μL of lysis buffer per well using a Multidrop Combi. Then place on a plate agitator shaking at 300 rpm at 4° C. for 40 mins. […] Make up the HTRF antibody buffer. For each assay plate, mix 50 μL of d2-conjugate antibody with 950 μL of detection buffer. Similarly, mix 50 μL of Cryptate antibody with 950 μL of detection buffer. Then mix the two diluted antibodies together. […] Dispense 3.4 μL the antibody buffer to wells of an empty assay plate. Seal the plate and centrifuge plate 30 sec×1000 rpm. […] At the end of the 4° C. lysis, centrifuge the lysate plates 3 mins×1500 rpm. […] Use the Bravo to transfer 13.6 μL of lysate from cell culture plate to assay plate. Then incubate assay plate for 2 hrs at room temperature. 8. At the end of incubation, read plate on the Envision after centrifuging plate 30 sec×1000 rpm.

Assay [2] has as its system KRas-mediated phosphorylation of ERK in AsPC-1 cells. Nature of the assay: Inhibition of KRas-mediated phosphorylation of ERK (Cisbio HTRF pERK), AsPC-1 cells. Type of assay: cell-based. Conditions: Homo sapiens, ASPC1, AsPC-1 cells; HTRF pERK. The procedure: as §1
The target in another assay is T3, KRas^G12V (Homo sapiens, UniProt P01116, G12V).
T3 construct: Biotinylated KRas (corresponding to amino acids 1-169, produced at Accelegan Inc.); biotin (biotinylated); purchased Accelegan Inc
Nature of the assay: KRas binding assay (TR-FRET tracer displacement), KRas G12V.

T1 sequence (P01116 1-169 isoform P01116-2 G12R): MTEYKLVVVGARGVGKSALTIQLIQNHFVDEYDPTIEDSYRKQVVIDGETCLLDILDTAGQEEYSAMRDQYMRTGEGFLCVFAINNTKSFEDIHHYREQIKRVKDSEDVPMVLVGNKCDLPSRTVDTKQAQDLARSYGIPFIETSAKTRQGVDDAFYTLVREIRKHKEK
T2 sequence (P01116 1-169 isoform P01116-2 G12D): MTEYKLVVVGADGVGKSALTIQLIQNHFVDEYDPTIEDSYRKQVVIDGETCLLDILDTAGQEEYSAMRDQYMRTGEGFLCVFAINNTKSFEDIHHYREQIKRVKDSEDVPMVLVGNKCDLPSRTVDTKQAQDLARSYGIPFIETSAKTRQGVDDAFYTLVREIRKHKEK
T3 sequence (P01116 1-169 isoform P01116-2 G12V): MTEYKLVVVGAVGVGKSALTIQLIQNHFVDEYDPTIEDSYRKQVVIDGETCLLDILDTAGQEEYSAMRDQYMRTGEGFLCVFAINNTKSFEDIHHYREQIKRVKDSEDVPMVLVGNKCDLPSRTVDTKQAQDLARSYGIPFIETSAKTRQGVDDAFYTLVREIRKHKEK

Regarding `CCc1c(F)ccc2cc(O)cc(-c3ncc4c(N5CCCC6(C5)NC(=O)NC6=O)nc(N5CC(C)(N)C5)nc4c3F)c12` (stereo not drawn) [Example 531, 7-(2-(3-amino-3-methylazetidin-1-yl)-7-(8-ethyl-7-fluoro-3-hydroxynaphthalen-1-yl)-8-fluoropyrido[4,3-d]pyrimidin-4-yl)-1,3,7-triazaspiro[4.5]decane-2,4-dione], the IC50 (as a rule, the concentration needed to halve the response being measured) at KRas^G12R was less than 2 nM; at KRas^G12D, 5 nM; in assay [1] it was more than 10000 nM; in assay [2], more than 10000 nM; on KRas^G12V, less than 2 nM.
As for `CCc1c(F)ccc2cc(O)cc(-c3ncc4c(N5CCCn6nc(C(=O)N(C)C)cc6C5)nc(N5CC(C)(N)C5)nc4c3F)c12` [Example 532, 5-(2-(3-amino-3-methylazetidin-1-yl)-7-(8-ethyl-7-fluoro-3-hydroxynaphthalen-1-yl)-8-fluoropyrido[4,3-d]pyrimidin-4-yl)-N,N-dimethyl-5,6,7,8-tetrahydro-4H-pyrazolo[1,5-a][1,4]diazepine-2-carboxamide], the half-maximal inhibitory concentration (IC50) on KRas^G12R was 24 nM; on KRas^G12D, 9 nM; in assay [1], more than 10000 nM; in assay [2], more than 10000 nM; at KRas^G12V, 15 nM.
Take `CCc1c(F)ccc2cc(O)cc(-c3ncc4c(NC5CCONC5)nc(OC[C@@]56CCCN5C[C@H](F)C6)nc4c3F)c12` (stereo partly drawn) [Example 542, 4-(4-((1,2-oxazinan-4-yl)amino)-8-fluoro-2-(((2R,7aS)-2-fluorohexahydro-1H-pyrrolizin-7a-yl)methoxy)pyrido[4,3-d]pyrimidin-7-yl)-5-ethyl-6-fluoronaphthalen-2-ol]: the IC50 is 6 nM at KRas^G12R; 60 nM on KRas^G12D; 2330 nM in assay [1]; more than 10000 nM in assay [2]; 9 nM on KRas^G12V.
With `CCc1c(F)ccc2cc(O)cc(-c3ncc4c(N5C[C@H]6CC[C@@]6(O)C5)nc(OC[C@@]56CCCN5C[C@H](F)C6)nc4c3F)c12` [Example 546, (1S,5R)-3-(7-(8-ethyl-7-fluoro-3-hydroxynaphthalen-1-yl)-8-fluoro-2-(((2R,7aS)-2-fluorohexahydro-1H-pyrrolizin-7a-yl)methoxy)pyrido[4,3-d]pyrimidin-4-yl)-3-azabicyclo[3.2.0]heptan-1-ol], the IC50 at KRas^G12R amounted to 37 nM; at KRas^G12D it was 72 nM; in assay [1] it was 1010 nM; in assay [2] it was 1830 nM; on KRas^G12V it was 35 nM.
For `CCc1c(F)ccc2cc(O)cc(-c3ncc4c(N5CCC6CCCC5C6)nc(OC[C@@]56CCCN5C[C@H](F)C6)nc4c3F)c12` (stereo partly drawn) [Example 552, 4-(4-(2-azabicyclo[3.3.1]nonan-2-yl)-8-fluoro-2-(((2R,7aS)-2-fluorotetrahydro-1H-pyrrolizin-7a(5H)-yl)methoxy)pyrido[4,3-d]pyrimidin-7-yl)-5-ethyl-6-fluoronaphthalen-2-ol], in that order: 71 nM, 810 nM, 5300 nM, 9330 nM and 244 nM.
On to `CCc1c(F)ccc2cc(O)cc(-c3ncc4c(NCC5CNC(=O)CO5)nc(OC[C@@]56CCCN5C[C@H](F)C6)nc4c3F)c12` (stereo partly drawn) [Example 556, 6-(((7-(8-ethyl-7-fluoro-3-hydroxynaphthalen-1-yl)-8-fluoro-2-(((2R,7aS)-2-fluorotetrahydro-1H-pyrrolizin-7a(5H)-yl)methoxy)pyrido[4,3-d]pyrimidin-4-yl)amino)methyl) morpholin-3-one], for which the IC50 on KRas^G12R is less than 2 nM; at KRas^G12D, 10 nM; in assay [1], 2510 nM; in assay [2] it was more than 10000 nM; at KRas^G12V, 2 nM.
For `CCc1c(F)ccc2cc(O)cc(-c3ncc4c(N5CCC(n6cnnc6)C5)nc(OC[C@@]56CCCN5C[C@H](F)C6)nc4c3F)c12` (stereo partly drawn) [Example 564, 4-(4-(3-(4H-1,2,4-triazol-4-yl)pyrrolidin-1-yl)-8-fluoro-2-(((2R,7aS)-2-fluorotetrahydro-1H-pyrrolizin-7a(5H)-yl)methoxy)pyrido[4,3-d]pyrimidin-7-yl)-5-ethyl-6-fluoronaphthalen-2-ol], in that order: 31 nM, 640 nM, more than 10000 nM, more than 10000 nM and 16 nM.
The corresponding values for `CCc1c(F)ccc2cc(O)cc(-c3ncc4c(N5CC6(C)CC(CO)(C5)C6)nc(OC[C@@]56CCCN5C[C@H](F)C6)nc4c3F)c12` [Example 565, 5-ethyl-6-fluoro-4-(8-fluoro-2-(((2R,7aS)-2-fluorohexahydro-1H-pyrrolizin-7a-yl)methoxy)-4-(1-(hydroxymethyl)-5-methyl-3-azabicyclo[3.1.1]heptan-3-yl)pyrido[4,3-d]pyrimidin-7-yl)naphthalen-2-ol] are 1030 nM, 1160 nM, more than 10000 nM, more than 10000 nM and 908 nM.
For `CCc1c(F)ccc2cc(O)cc(-c3ncc4c(N5CCN6C[C@@H](O)C[C@H]6C5)nc(OC[C@@]56CCCN5C[C@H](F)C6)nc4c3F)c12` [Example 567, (7S,8aS)-2-(7-(8-ethyl-7-fluoro-3-hydroxynaphthalen-1-yl)-8-fluoro-2-(((2R,7aS)-2-fluorohexahydro-1H-pyrrolizin-7a-yl)methoxy)pyrido[4,3-d]pyrimidin-4-yl) octahydropyrrolo[1,2-a]pyrazin-7-ol], the IC50 on KRas^G12R is 1460 nM; on KRas^G12D, 682 nM; in assay [1], more than 10000 nM; in assay [2], more than 10000 nM; at KRas^G12V it was 2430 nM.
Consider `CCc1c(F)ccc2cc(O)cc(-c3ncc4c(N5CC6(CO)CC5CCO6)nc(OC[C@@]56CCCN5C[C@H](F)C6)nc4c3F)c12` (stereo partly drawn) [Example 572, 5-ethyl-6-fluoro-4-(8-fluoro-2-(((2R,7aS)-2-fluorohexahydro-1H-pyrrolizin-7a-yl)methoxy)-4-(1-(hydroxymethyl)-2-oxa-6-azabicyclo[3.2.1]octan-6-yl)pyrido[4,3-d]pyrimidin-7-yl)naphthalen-2-ol], for which the concentration for half-maximal inhibition (IC50) at KRas^G12R was 162 nM; at KRas^G12D, 1970 nM; in assay [1], 4190 nM; in assay [2], more than 10000 nM; at KRas^G12V, 266 nM.
The corresponding values for `CCc1c(F)ccc2cc(O)cc(-c3ncc4c(N[C@H](C)CN5CC(C)(O)C5)nc(OC[C@@]56CCCN5C[C@H](F)C6)nc4c3F)c12` [Example 577, 1-((R)-2-((7-(8-ethyl-7-fluoro-3-hydroxynaphthalen-1-yl)-8-fluoro-2-(((2R,7aS)-2-fluorohexahydro-1H-pyrrolizin-7a-yl)methoxy)pyrido[4,3-d]pyrimidin-4-yl)amino)propyl)-3-methylazetidin-3-ol] are 727 nM, 29 nM, more than 10000 nM, 8440 nM and 606 nM.
As for `CCc1c(F)ccc2cc(O)cc(-c3ncc4c(NC56CCC(C#N)(CC5)CC6)nc(OC[C@@]56CCCN5C[C@H](F)C6)nc4c3F)c12` [Example 585, 4-((7-(8-ethyl-7-fluoro-3-hydroxynaphthalen-1-yl)-8-fluoro-2-(((2R,7aS)-2-fluorohexahydro-1H-pyrrolizin-7a-yl)methoxy)pyrido[4,3-d]pyrimidin-4-yl)amino)bicyclo[2.2.2]octane-1-carbonitrile], the IC50 on KRas^G12R worked out at 76 nM; at KRas^G12D, 434 nM; in assay [1], 2060 nM; in assay [2], 4610 nM; on KRas^G12V, 103 nM.
